Among the data in ChEMBL document CHEMBL5136972, “Targeting SARS-CoV-2 Proteases and Polymerase for COVID-19 Treatment: State of the Art and Future Opportunities” (J Med Chem, 2022) are Ki values, retold here.

The target in this experiment is Replicase polyprotein 1ab (Severe acute respiratory syndrome coronavirus 2, UniProt P0DTD1).

The term Ki denotes the equilibrium dissociation constant of an inhibitor or competing ligand from its target. For the compound `Cc1cc(C(=O)N[C@@H](C)C(=O)N[C@H](C(=O)N[C@@H](CC(C)C)C(=O)N[C@H](/C=C/C(=O)OCc2ccccc2)C[C@@H]2CCNC2=O)C(C)C)no1`, the affinity, expressed as Ki, was 9 µM.
